Experiments:
NCI-H446 cells = experiment: ADCC assay (LDH release), human spleen effector cells; format: cell-based; details: NCI-H446 target cells
Experimental: (§1) NCI-H520, A549 and NCI-H446 cells (1×10^4 per well) were incubated with Metuzumab or cHAb18 mAb for 30 min at 37° C. Effector cells (Spleen cells) were added at the ratio of effector cells to […] (E/T) 50:1 for 24 hours at 37° C. in CO2 incubator. After centrifugation, supernatants were harvested and lactate dehydrogenase (LDH) activity were measured. Data represent mean±SD of five independent experiments.
(§2) The ADCC activity was determined by measuring lactate dehydrogenase (LDH) activity in the medium using a Cytotoxicity Detection Kit (LDH; Roche) according to the manufacturer's protocols.
(§3) In vitro ADCC assays were performed with human lung cancer cell lines (NCI-H520, A549 and NCI-H446) as target cells, and human spleen cells were used as effector cells. The target cells (1×10^4 per well) were washed with PBS and pre-incubated with antibodies solution for 30 min at 37° C. in serum-free RPMI-1640 supplemented with 0.1% BSA. The antibody solution (Metuzumab or the chimeric antibody cHAb18 mAb) that has been adjusted to a concentration of 0.001, 0.01, 0.1, 1 or 10 μg/ml was dispensed at 100 μl/well into each well that contained the target cells, Subsequently, 100 μl of the effector cells at an effector/target ratio of 50:1 was dispensed into each well, and incubated at in a carbon dioxide incubator. The cells were incubated for an additional 24 h prior to the detection of cell death by measuring lactate dehydrogenase (LDH) activity in the medium using a Cytotoxicity Detection Kit (LDH; Roche) according to the manufacturer's protocols. The ADCC-inducing activity was calculated to the following formula: Cytotoxicity (expressed as a percentage)=(experimental cell lysis−spontaneous effector lysis−spontaneous target lysis)/(maximum target lysis−spontaneous target lysis)×100%. All assays were performed in triplicate.

NCI-H520 cells [1] = experiment: as above; format: cell-based; details: NCI-H520 target cells
Experimental: as §1, §2, §3

A549 cells [2] = experiment: as above; format: cell-based; details: A549 target cells
Experimental: as §1, §2, §3

NCI-H520 cells [3] = experiment: Transwell invasion assay; format: cell-based, human; details: 24 hours
Experimental: (§4) For invasion assay, NCI-H520 or A549 cells were serum-starved for 12 hours in DMEM containing 0.1% FBS. Serum-starved cells were trypsinized and re-suspended in DMEM containing 0.1% FBS and Metuzumab solution at 0.1 μg/ml, 1 μg/ml and 10 μg/ml, respectively. 5×10^4 cells were added to the upper chamber of each well (6.5 mm in diameter, 8-μm pore size; Corning, N.Y.) coated with […] Matrigel (BD Bioscience). Medium containing 10% FBS was placed in the lower compartment of the chamber. After 24 hours at 37° C., cells on the upper membrane surface were removed by careful wiping with a cotton swab, and the filters were fixed by treatment with 95% ethanol for 30 minutes and stained with 0.2% crystal violet solution for 30 minutes. Invasive cells adhering to the undersurface of the filter were then counted (five high-power fields/chamber) using a CX71 microscope (Olympus).

A549 cells [4] = experiment: Transwell invasion assay; format: cell-based, human; details: 24 hours
Experimental: as §4

NCI-H520 cells [5] = experiment: Wound healing (migration) assay; format: cell-based, human
Experimental: (§5) Wound healing and transwell invasion assays were performed. For wound healing assay, 2×10^4 cells were plated in 24-well plate to form cell monolayer and allowed to reach confluence for 2 days. A wound was made in the monolayer (at time 0) by a 200 μl tip. After wash of the monolayer, Metuzumab solution was dispensed at 0.1 μg/ml, 1 μg/ml and 10 μg/ml, respectively, at 200 μl/well into each well. Saline was used as control. The distance between two sides of an open wound was measured under a CX71 microscope (Olympus). The distance between the two sides of the wound after 20-72 h of migration was divided by the distance at time 0 and represented on a graph. The experiments were performed in triplicates, the results were shown as mean±SD.

A549 cells [6] = experiment: Wound healing (migration) assay; format: cell-based, human
Experimental: as §5

A549 cells [7] = experiment: Subcutaneous xenograft model, tumor growth inhibition; format: in vivo, SCID mice; details: tail vein
Experimental: Mice injected with A549 cells subcutaneously in the right dorsal flank were treated by intravenous saline; 2 mg/kg Cisplatin and 100 mg/kg Gemcitabine; Metuzumab infusion at 2 mg/kg, 10 mg/kg and 30 mg/kg; combination of 10 mg/kg Metuzumab with 2 mg/kg Cisplatin and 100 mg/kg Gemcitabine; wherein the antibodies were injected twice weekly for 3 week consecutively, while the chemotherapeutic agents were injected once a week for 3 weeks consecutively. The tumors were measured twice a week.
Animals were housed in specific pathogen-free (SPF) condition. For the localized subcutaneous xenograft mouse model, 1×10^6 NCI-H520 or A549 cells, suspended in Hank's balanced salt solution were implanted in the right dorsal flank of male SCID mice (6-8 week old). When tumors reached a mean volume of 100 mm^3, mice were randomized into treatment cohorts (n=10 mice per group). Mice were grouped for different treatments, including Metuzumab treatment groups treated with 2 mg/kg, 10 mg/kg and 30 mg/kg Metuzumab; chemistry treatment group treated with 2 mg/kg Cisplatin and 100 mg/kg Gemcitabine; combination treatment group treated with 10 mg/kg Metuzumab with 2 mg/kg Cisplatin and 100 mg/kg Gemcitabine, or saline (control group) via tail vein, respectively. Antibody injections were administered twice weekly, for 3 weeks consecutively; chemotherapeutic agents were administered once a week, for 3 weeks consecutively. Tumor size was measured twice each week for the duration of the study using calipers. Tumor volumes were determined using the following formula: […]. Antitumor activity was assessed by calculating inhibition ratio of tumor volumes (IRTV) based on medians by using following formula: [1−average (Ttreatment (day x)−Ttreatment (day 0))/average (Tcontrol (day x)−Tcontrol (day 0))]×100%.

Metuzumab: human-mouse chimeric anti-CD147 IgG1, heavy chain SEQ ID NO: 4, light chain SEQ ID NO: 3, Mannose-5 glycoform lacking fucose and xylose
ADCC-inducing activity increase over cHAb18 mAb (NCI-H446 cells): about 10 folds
EC50% (ADCC) (NCI-H446 cells; effector/target 50:1, 24 h): 0.11 mg/L
ADCC-inducing activity increase over cHAb18 mAb (NCI-H520 cells [1]): about 10 folds
EC50% (ADCC) (NCI-H520 cells [1]; effector/target 50:1, 24 h): 0.04 mg/L
ADCC-inducing activity increase over cHAb18 mAb (A549 cells [2]): about 10 folds
EC50% (ADCC) (A549 cells [2]; effector/target 50:1, 24 h): 0.06 mg/L
invasiveness repressed compared to control groups (NCI-H520 cells [3]; NCI-H520, 0.1 μg/ml): 30.0%
invasiveness repressed compared to control groups (NCI-H520 cells [3]; NCI-H520, 1 μg/ml): 48.0%
invasiveness repressed compared to control groups (NCI-H520 cells [3]; NCI-H520, 10 μg/ml): 66.2%
invasiveness repressed compared to control groups (A549 cells [4]; A549, 0.1 μg/ml): 53.5%
invasiveness repressed compared to control groups (A549 cells [4]; A549, 1 μg/ml): 61.5%
invasiveness repressed compared to control groups (A549 cells [4]; A549, 10 μg/ml): 74.6%
migration activity decrease compared to control group (NCI-H520 cells [5]; NCI-H520, 0.1 μg/ml): 20.2%
migration rate (NCI-H520 cells [5]; NCI-H520, 0.1 μg/ml (saline 18.8 μm/hr)): 15.0 μm/hr
migration activity decrease compared to control group (NCI-H520 cells [5]; NCI-H520, 1 μg/ml): 34.0%
migration rate (NCI-H520 cells [5]; NCI-H520, 1 μg/ml (saline 18.8 μm/hr)): 12.4 μm/hr
migration activity decrease compared to control group (NCI-H520 cells [5]; NCI-H520, 10 μg/ml): 44.1%
migration rate (NCI-H520 cells [5]; NCI-H520, 10 μg/ml (saline 18.8 μm/hr)): 10.5 μm/hr
migration activity repressed compared to control group (A549 cells [6]; A549, 0.1 μg/ml): 24.4%
migration rate (A549 cells [6]; A549, 0.1 μg/ml (control 20.1 μm/hr)): 15.2 μm/hr
migration activity repressed compared to control group (A549 cells [6]; A549, 1 μg/ml): 38.3%
migration rate (A549 cells [6]; A549, 1 μg/ml (control 20.1 μm/hr)): 12.4 μm/hr
migration activity repressed compared to control group (A549 cells [6]; A549, 10 μg/ml): 50%
migration rate (A549 cells [6]; A549, 10 μg/ml (control 20.1 μm/hr)): 10.1 μm/hr
tumor volume inhibition rate (A549 cells [7]; 2 mg/kg twice weekly for 3 weeks): 14.78%
tumor volume inhibition rate (A549 cells [7]; 10 mg/kg twice weekly for 3 weeks): 26.52%
tumor volume inhibition rate (A549 cells [7]; 30 mg/kg twice weekly for 3 weeks): 50.64%

From patent US9963506B2, “Human-mouse chimeric anti-CD147 antibody with non-fucosylated glycosylation” (Fourth Military Medical University, priority 2015, dated 2018)
